Laboratory results reported in publication PMC3388044, “Probing of Exosites Leads to Novel Inhibitor Scaffolds of HCV NS3/4A Proteinase” (PLoS ONE, 2012).

Test system: HCV replicon (NS3/4A A156T)
Assay: not given
Settings: mutant HCV replicon with luciferase readout; cited from earlier work

Row | SMILES | IC50 [µM]
1 | CC(C)(C)NC(=O)N[C@H](C(=O)N1C[C@H]2[C@@H]([C@H]1C(=O)NC(CC1CCC1)C(=O)C(N)=O)C2(C)C)C(C)(C)C (some centres unmarked) [Boceprevir, boceprevir] | 7.23

Test system: HCV replicon (NS3/4A R155K)
Assay: not given
Settings: fold change vs WT, mutant HCV replicon; cited from earlier work

Row | SMILES | R155K FC (replicon)
2 | CC(C)(C)NC(=O)N[C@H](C(=O)N1C[C@H]2[C@@H]([C@H]1C(=O)NC(CC1CCC1)C(=O)C(N)=O)C2(C)C)C(C)(C)C (some centres unmarked) [Boceprevir, boceprevir] | 4.7

Same assay, conditions: mutant HCV replicon with luciferase readout; cited from earlier work

Row | SMILES | IC50 [µM]
3 | CC(C)(C)NC(=O)N[C@H](C(=O)N1C[C@H]2[C@@H]([C@H]1C(=O)NC(CC1CCC1)C(=O)C(N)=O)C2(C)C)C(C)(C)C (some centres unmarked) [Boceprevir, boceprevir] | 0.743

Test system: HCV replicon (WT NS3/4A)
Assay: not given
Settings: HCV replicon with luciferase readout; cited from earlier work

Row | SMILES | IC50 [µM]
4 | CC(C)(C)NC(=O)N[C@H](C(=O)N1C[C@H]2[C@@H]([C@H]1C(=O)NC(CC1CCC1)C(=O)C(N)=O)C2(C)C)C(C)(C)C (some centres unmarked) [Boceprevir, boceprevir] | 0.148

Test system: HCV replicon (NS3/4A V36M)
Assay: not given
Settings: fold change vs WT, mutant HCV replicon; cited from earlier work

Row | SMILES | V36M FC (replicon)
5 | CC(C)(C)NC(=O)N[C@H](C(=O)N1C[C@H]2[C@@H]([C@H]1C(=O)NC(CC1CCC1)C(=O)C(N)=O)C2(C)C)C(C)(C)C (some centres unmarked) [Boceprevir, boceprevir] | 1.8

Same assay, conditions: mutant HCV replicon with luciferase readout; cited from earlier work

Row | SMILES | IC50 [µM]
6 | CC(C)(C)NC(=O)N[C@H](C(=O)N1C[C@H]2[C@@H]([C@H]1C(=O)NC(CC1CCC1)C(=O)C(N)=O)C2(C)C)C(C)(C)C (some centres unmarked) [Boceprevir, boceprevir] | 0.217

Molecular target: T1, HCV NS3/4A (wild-type) (Hepatitis C virus genotype 1b, UniProt O92972)
T1 construct: The NS3/4A construct represented the individual NS3 proteinase domain N-terminally fused with an NS4A co-factor; 6xHis; purchased AnaSpec (Fremont, CA)
Assay: NS3/4A activity assay with FRET peptide substrate, wild-type enzyme
Assay type: biochemical, HCV genotype 1b, strain HC-J4
Settings: Table S1 100-1000; wild-type NS3/4A, FRET peptide substrate; read-out: NS3/4A IC50 range class 100-1000
From the text: Reagents were purchased from Sigma unless indicated otherwise. The FRET substrate Ac-DE-D(Edans)-EE-Abu-ψ-[COO]-AS-K(Dabsyl)-NH2, purified recombinant wild-type NS3/4A from HCV genotype 1b, strain HC-J4, and the mutants with the V36M, R155K, A156T, D168A and V170A resistance mutations were from AnaSpec (Fremont, CA). The NS3/4A construct represented the individual NS3 proteinase domain N-terminally fused with an NS4A co-factor and tagged with a 6xHis tag. NS3/4A was in active form and the pre-activation by pep-4A or pep4AK was not necessary. Pyroglutamic acid-Arg-Thr-Lys-Arg-7-amino-4-methylcoumarin was from Peptides International (Louisville, KY). West Nile virus NS2B-NS3 proteinase (strain NY99) was expressed, purified and refolded to restore its functional activity as described earlier. The pET15b-Den2-CF40-Gly-NS3pro 185 plasmid encoding the Dengue virus type 2 NS2B-NS3 protease was a kind gift of Dr. Subhash Vasudevan (Program in Emerging Infectious Diseases, DUKE-NUS Graduate Medical School, Singapore). DV NS2B-NS3 proteinase was expressed purified and refolded to restore its functional activity as described previously, [70]. The expression of the soluble C-terminally truncated human furin construct in Sf9 insect cells (an ovarian cell line from fall armyworm Spodoptera frugiperda; Invitrogen, Carlsbad, CA) infected with the recombinant baculovirus and purification of soluble furin from the medium were described earlier. Original human hepatocarcinoma Huh7 cells were obtained from ATCC (Manassas, VA).
The NS3/4A activity assay was performed at 37°C in triplicate in wells of a 96-well plate in 0.2 ml 50 mM HEPES, pH 7.5, containing 100 mM NaCl, 10 mM DTT, 20% glycerol, the Ac-DE-D(Edans)-EE-Abu-ψ-[COO]-AS-K(Dabsyl)-NH2 substrate (10 µM) and the NS3/4A enzyme (10 nM). Reaction velocity was monitored continuously at λex = 355 nm and λem = 500 nm for 10 min using a Spectramax Gemini EM fluorescence spectrophotometer (Molecular Devices, Sunnyvale, CA) and the initial rate of reaction v was recorded for each reaction. There was no significant additional absorption by compounds 1–8 we identified, which might interfere with NS3/4A assay. Compound stock solutions (10 mM) were made in 100% DMSO. Stocks were then diluted using the assay buffer. As a result, the final DMSO concentration was always below 1% in the assay reactions.
To measure the inhibitory potency of the compounds, their increasing concentrations were pre-incubated with the individual proteinases in the corresponding buffer for 30 min at ambient temperature. At least, 7–9 different concentrations were used for each inhibitor. The residual activity of the enzymes was then measured as above. The IC50 values of the inhibitory compounds were calculated by determining the concentrations of the compounds needed to inhibit 50% of the enzyme activity against the peptide substrate. GraphPad Prism was used as fitting software.

Row | SMILES | IC50 [µM]
7 | S=c1[nH]n2c(COc3ccc(OCc4nnc5sc(=S)[nH]n45)c(Cl)c3)nnc2s1 [Compound 59] | 100 to 1000
8 | Cc1cc(S(=O)(=O)Nc2nc3ccsc3c(=O)n2Cc2ccccc2)c(S)cc1Cl [Compound 60] | 100 to 1000
9 | O=C(Nc1ccc(Br)cc1)C(=O)C(C(=O)c1ccc(Cl)c(Cl)c1)C1OC(=O)c2ccccc21 (centres unmarked) [Compound 55] | 100 to 1000
10 | FC(F)(F)C(F)(F)c1nc2nc(Cl)c(Cl)nc2[nH]1 [Compound 45] | 100 to 1000
11 | CSc1nc2nc(Cl)c(Cl)nc2[nH]1 [Compound 47] | 100 to 1000
12 | NC(=S)/N=C(\c1nc2ccc(Cl)cc2[nH]c1=O)C(O)c1ccccc1Cl (centres unmarked) [Compound 50] | 100 to 1000
13 | FC(F)(F)C1=N/C(=C2\N=C(C(F)(F)F)N=C2Cl)C(Cl)=N1 [Compound 48] | 100 to 1000
14 | COc1ccc(OC)c(NC(=O)c2c(Cl)c(Cl)c(Cl)c(Cl)c2-c2nc3ccccc3[nH]2)c1 [Compound 58] | 100 to 1000
15 | O=C(CCc1nnc2s/c(=C\c3ccccc3[N+](=O)[O-])c(=O)n12)Nc1cc(Cl)c(Cl)cc1Cl [Compound 54] | 100 to 1000
16 | CC(C)(CCC#N)c1nc2sc(C(C)(C)CCC#N)nc2s1 [Compound 43] | 100 to 1000
17 | O=[N+]([O-])c1cc([N+](=O)[O-])c2ccccc2c1NS(=O)(=O)c1ccc(Cl)c(Cl)c1Cl [Compound 53] | 100 to 1000
18 | CC(CNc1nc(Nc2ccc(Cl)c(Cl)c2)nc(C(Cl)(Cl)Cl)n1)N(C)C (centres unmarked) [Compound 49] | 100 to 1000
19 | O=S(=O)(Nc1c(Cl)c(Cl)c(Cl)c(Cl)c1NS(=O)(=O)c1ccccc1)c1ccccc1 [Compound 52] | 100 to 1000
20 | CN(C)CCCNc1nc(-c2cccc(C(Cl)(Cl)Cl)c2)nc(C(Cl)(Cl)Cl)n1 [Compound 44] | 100 to 1000
21 | Clc1nc2nc3n(c2nc1Cl)CCC3 [Compound 46] | 100 to 1000
22 | Cn1ncc2c(Nc3ccc(O)cc3)nc(Cl)nc21 [Compound 42] | 100 to 1000
23 | Cc1cccc(C(C)C)c1NC(=O)C(=O)CC(=O)c1sc(Nc2ccccc2Cl)nc1C [Compound 56] | 100 to 1000
24 | CC(=O)Nc1ccc(NC(=O)c2c(Cl)c(Cl)c(Cl)c(Cl)c2-c2nc3ccccc3[nH]2)cc1 [Compound 57] | 100 to 1000
25 | OCCOCn1nc(-c2ccccc2)nc1-c1cnccn1 [Compound 51] | 100 to 1000

Same assay, conditions: Table S1; wild-type NS3/4A, FRET peptide substrate; read-out: NS3/4A IC50 range class 10 -100

Row | SMILES | IC50 [µM]
26 | O=C(CCCC(=O)N/N=C/c1ccc(Cl)cc1Cl)N/N=C/c1ccc(Cl)cc1Cl [Compound 17] | 10 to 100
27 | O=C(Nc1ccc(Cl)c(Cl)c1)C1C(=O)C(=O)N(c2ccc(Cl)c(Cl)c2)C1=O (centres unmarked) [Compound 24] | 10 to 100
28 | OCC(O)C(O)C(O)c1nn(-c2ccccc2)c2nc3cc(Cl)c(Cl)cc3nc12 (centres unmarked) [Compound 31] | 10 to 100
29 | CSC(=S)n1nc(C)c(N=Nc2cccc(Cl)c2Cl)c1C [Compound 29] | 10 to 100
30 | Cn1ncc2c(Nc3cc(Cl)ccc3Cl)ncnc21 [Compound 12] | 10 to 100
31 | O=C(Nc1ccc(Cl)c(Cl)c1)C(=O)C(C(=O)c1ccccc1F)C1OC(=O)c2ccccc21 (centres unmarked) [Compound 39] | 10 to 100

Test system: HCV replicon (NS3/4A V170A)
Assay: not given
Settings: fold change vs WT, mutant HCV replicon; cited from earlier work

Row | SMILES | V170A FC (replicon)
32 | CC(C)(C)NC(=O)N[C@H](C(=O)N1C[C@H]2[C@@H]([C@H]1C(=O)NC(CC1CCC1)C(=O)C(N)=O)C2(C)C)C(C)(C)C (some centres unmarked) [Boceprevir, boceprevir] | 5.8

Same assay, conditions: mutant HCV replicon with luciferase readout; cited from earlier work

Row | SMILES | IC50 [µM]
33 | CC(C)(C)NC(=O)N[C@H](C(=O)N1C[C@H]2[C@@H]([C@H]1C(=O)NC(CC1CCC1)C(=O)C(N)=O)C2(C)C)C(C)(C)C (some centres unmarked) [Boceprevir, boceprevir] | 1.55

Test system: HCV replicon (NS3/4A D168A)
Assay: not given
Settings: fold change vs WT, mutant HCV replicon; cited from earlier work

Row | SMILES | D168A FC (replicon)
34 | CC(C)(C)NC(=O)N[C@H](C(=O)N1C[C@H]2[C@@H]([C@H]1C(=O)NC(CC1CCC1)C(=O)C(N)=O)C2(C)C)C(C)(C)C (some centres unmarked) [Boceprevir, boceprevir] | 0.7

Same assay, conditions: mutant HCV replicon with luciferase readout; cited from earlier work

Row | SMILES | IC50 [µM]
35 | CC(C)(C)NC(=O)N[C@H](C(=O)N1C[C@H]2[C@@H]([C@H]1C(=O)NC(CC1CCC1)C(=O)C(N)=O)C2(C)C)C(C)(C)C (some centres unmarked) [Boceprevir, boceprevir] | 0.1
